Test results reported in patent US4145444A, “Anti-inflammatory agent of benzoyl derivative” (priority 1977, dated 1979).
Where two headings read alike, the source gives them in different places.

Key:
thrombus = assay: Inhibiting effect on thrombosis (by-pass between left juglar vein and right carotid artery, silk thread); type: in vivo, SD type male rates; settings: Rattus norvegicus, read-out: Thrombosis inh.: thrombosis inhibition rate
Method: The inhibiting effects of the samples of the invention on thrombosis were tested by the following test method.
A 0.5 ml of 50 μ/ml of the heparin physiological saline was added through the polyethylene tube before the first blood circulation. After the blood circulation for 15 minutes, the circulation was stopped in the middle of the tubing at artery side with a pinch cock.
Then, 0.2 ml of the heparin physiological saline was added to remove the blood coagulates on the tubing wall and another new polyethylene tubing filled with the heparin solution and containing a piece of new silk thread was attached between the venous and artery tubing ends.
The blood circulation was reestablished by opening the pinch cock. After 15 minutes, the wet weight of thrombus on the silk thread was similarly measured.
In the same manner, the third circulation was performed and wet weight of thrombus measured.
The amount of thrombus was given by the equation A. [formula] Each sample was suspended in an aqueous solution of sodium carboxymethyl cellulose and the oral dose of the suspension (100 mg/kg) was performed at 5 hours before the first blood circulation.
The amount of thrombus after the oral dose of the sample was calculated in the same manner as that of control circulations.
The thrombosis inhibition rate was given by the equation B. [formula]

platelet = assay: Blood platelet aggregation inhibiting effect (collagen-induced); type: cell-based, rabbits; settings: for inhibition at 100 µM: Oryctolagus cuniculus, Platelet, read-out: Blood platelet agg. inh.: percentage inhibition of platelet aggregation
Text: Male rabbits (Japan original white strain 3.3 to 3.6 kg) were anesthetized with Thiopental sodium and blood was sampled from the carotid artery.

male mice = assay: Analgesic effect: painful stretchings following intraperitoneal 0.7% acetic acid; settings: Mus musculus, po, read-out: Analgesic: percentage diminition of times of painful stretching
Method: Each sample was orally administered in the dosage of 100 mg/kg before injection of acetic acid.

hind paws of male rats = assay: Anti-inflammatory effect: acute carragheenin edema method; type: in vivo; settings: for inhibition in vivo at 100 mg/kg: Rattus norvegicus, read-out: Anti-inf.: edema inhibition rate; for anti-inflammatory effect, inhibition rate (ED50), in words: rat, in vivo
Method: The edema was induced by subcutaneous injection of 1% carragheenin suspension in saline to the hind paws of male rats weighting 150 to 180 g. Each sample was orally given at the dosage of 100 mg/kg just before the inoculation of carragheenin.

[1] = 100 mg/kg oral, 5 hours before first blood circulation, rats
[2] = 10^-4 mole, collagen inducer, rabbit PRP
[3] = 100 mg/kg oral, carragheenin edema, male rats (Table 2)
[4] = 100 mg/kg oral, carragheenin edema, male rats (Table 2')

Structure (SMILES) | inhibition in vivo at 100 mg/kg (hind paws of male rats; [4]) [%] | further results
CCCCc1ccc(C(=O)c2ccc(OC)cc2)cc1 [compound 18] | – | inhibition in vivo at 100 mg/kg (thrombus; [1]): 24.2%; inhibition at 100 µM (platelet; [2]): 9.3%; inhibition in vivo at 100 mg/kg (male mice): 20.1%; inhibition in vivo at 100 mg/kg (hind paws of male rats; [3]): 41.6%
CC(C)(C)c1ccc(C(=O)c2ccccc2F)cc1 [compound 120] | 38.3 | –
COc1ccc(C(=O)C(=O)c2ccccc2)cc1 | – | inhibition in vivo at 100 mg/kg (thrombus; po, 5 h): 18.3%; inhibition at 100 µM (platelet): 20.1%; inhibition in vivo at 100 mg/kg (male mice): 10.2%; inhibition in vivo at 100 mg/kg (hind paws of male rats; po): 43.9%
Cc1cc(C)c(C)c(C(=O)c2ccccc2)c1C [compound 78] | – | inhibition in vivo at 100 mg/kg (thrombus; [1]): 20.2%; inhibition at 100 µM (platelet; [2]): 19.9%; inhibition in vivo at 100 mg/kg (male mice): 5.4%; inhibition in vivo at 100 mg/kg (hind paws of male rats; [3]): 12.5%
CC(C)c1ccc(C(=O)c2ccccc2)cc1 [compound 21] | – | inhibition in vivo at 100 mg/kg (thrombus; [1]): 5.4%; inhibition at 100 µM (platelet; [2]): 8.6%; inhibition in vivo at 100 mg/kg (male mice): 16.1%; inhibition in vivo at 100 mg/kg (hind paws of male rats; [3]): 37.3%
CCCCCCCCCc1ccc(C(=O)c2ccc(CCCC)cc2)cc1 [compound 102] | – | inhibition in vivo at 100 mg/kg (thrombus; [1]): 29.7%; inhibition at 100 µM (platelet; [2]): 30.4%; inhibition in vivo at 100 mg/kg (male mice): 15.2%; inhibition in vivo at 100 mg/kg (hind paws of male rats; [3]): 22.4%
CCCCCCCCc1ccc(C(=O)c2ccc(CCCC)cc2)cc1 [compound 101] | – | inhibition in vivo at 100 mg/kg (thrombus; [1]): 31.4%; inhibition at 100 µM (platelet; [2]): 27.9%; inhibition in vivo at 100 mg/kg (male mice): 18.3%; inhibition in vivo at 100 mg/kg (hind paws of male rats; [3]): 23.1%
CCCc1ccc(C(=O)c2ccc(Br)cc2)cc1 [compound 150] | 14 | –
Cc1cc(C)c(C(=O)c2ccccc2Br)c(C)c1 [compound 147] | 20.4 | –
CCCc1ccc(C(=O)c2ccccc2Br)cc1 [compound 142] | 38.9 | –
Cc1ccc(C(=O)c2cccc(F)c2)c(C)c1 [compound 126] | 27.7 | –
CCCCCc1ccc(C(=O)c2ccccc2Br)cc1 [compound 144] | 50 | –
Cc1cc(C)c(C(=O)c2ccc(Br)cc2)c(C)c1 [compound 153] | 27.8 | –
Cc1cc(C)c(C(=O)c2ccccc2I)c(C)c1 [compound 159] | 15.9 | –
CCCCCc1ccc(C(=O)c2ccccc2Cl)cc1 [compound 133] | 38.3 | –
CCCCCc1ccc(C(=O)c2ccccc2F)cc1 [Active ingredient No. 9, 2-Fluoro-4'-n-amyl-benzophenone] | – | anti-inflammatory effect, inhibition rate (ED50), in words (hind paws of male rats): especially high inhibition rate (ED50)
CCCc1ccc(C(=O)c2ccccc2Cl)cc1 [compound 132] | 14.9 | –
CCCCOc1ccc(C(=O)c2ccc(Cl)cc2)cc1 [compound 137] | 16.7 | –
CCCCCCCCc1ccc(C(=O)c2ccccc2Cl)cc1 [compound 134] | 35.1 | –
Cc1ccc(C(=O)c2ccc(Br)cc2)c(C)c1 [compound 152] | 22.6 | –
CCCCCc1ccc(C(=O)c2cccc(F)c2)cc1 [compound 124] | 23.5 | –

Structure (SMILES) | inhibition in vivo at 100 mg/kg (hind paws of male rats; [4]) [%] | further results
CC(C)c1ccc(C(=O)c2ccccc2F)cc1 [compound 117] | 53.3 | –
COc1ccc(C(=O)c2ccccc2F)cc1 [compound 116] | 59.8 | –
CCCCCc1ccc(C(=O)c2ccccc2I)cc1 [compound 156] | 43 | –
CC(C)Cc1ccc(C(=O)c2ccccc2F)cc1 [compound 118] | 32.7 | –
CCCCc1ccc(C(=O)c2cccc(F)c2)cc1 [compound 123] | 38.3 | –
Cc1cc(C)c(C(=O)c2ccccc2F)c(C)c1 [Active ingredient No. 11, 2-Fluoro-2',4',6'-trimethyl-benzophenone] | – | anti-inflammatory effect, inhibition rate (ED50), in words (hind paws of male rats): especially high inhibition rate (ED50)
Cc1ccc(C(=O)c2ccc(F)cc2)c(C)c1 [compound 130] | 37.8 | –
CCCCc1ccc(C(=O)c2ccccc2Br)cc1 [compound 143] | 45.4 | –
CCCCCCCCc1ccc(C(=O)c2cccc(Br)c2)cc1 [compound 148] | 36.3 | –
CCCCCc1ccc(C(=O)c2cccc(Cl)c2)cc1 [compound 140] | 14.9 | –
COc1ccc(C(=O)c2ccc(Cl)cc2)cc1 [compound 136] | 13.2 | –
CCCCCCc1ccc(C(=O)c2ccc(C)cc2C)cc1 [Active ingredient No. 4] | – | Blood platelet agg. inh.: percentage inhibition of platelet aggregation (platelet; [2]): 20.5%
CCCCCCOc1ccc(C(=O)c2ccc(Cl)cc2)cc1 [compound 138] | 12.5 | –
CCC(C)(C)c1ccc(C(=O)c2ccccc2F)cc1 [compound 122] | 39.3 | –
Cc1ccc(C(=O)c2ccccc2Br)c(C)c1 [compound 146] | 23.1 | –
CCCCCCCCc1ccc(C(=O)c2ccccc2I)cc1 [compound 157] | 37.4 | –
Cc1ccc(C(=O)c2ccc(I)cc2)c(C)c1 [compound 165] | 19.2 | –
CCCCCc1ccc(C(=O)c2ccc(F)cc2)cc1 [compound 128] | 33.6 | –
CCCCCCCCc1ccc(C(=O)c2ccc(Br)cc2)cc1 [compound 151] | 15.3 | –
CCCCc1ccc(C(=O)c2ccccc2I)cc1 [compound 155] | 31.8 | –
O=C(c1ccccc1)c1ccc(C2CCCCC2)cc1 [compound 73] | – | Blood platelet agg. inh.: percentage inhibition of platelet aggregation (platelet; [2]): 20.3%

Structure (SMILES) | inhibition in vivo at 100 mg/kg (hind paws of male rats; [4]) [%] | further results
CCCCCCCCc1ccc(C(=O)c2cccc(I)c2)cc1 [compound 161] | – | inhibition in vivo at 100 mg/kg (hind paws of male rats; po): 20.9%
CCCCCCCCc1ccc(C(=O)c2cccc(Cl)c2)cc1 [compound 141] | 13.8 | –
Cc1cc(C)c(C(=O)c2cccc(F)c2)c(C)c1 [compound 125] | 18.1 | –
Cc1cc(C)c(C(=O)c2cccc(I)c2)c(C)c1 [compound 163] | 16.4 | –
CCC(C)c1ccc(C(=O)c2ccccc2F)cc1 (centres unmarked) [compound 119] | 60.7 | –
O=C(c1ccccc1)c1ccccc1F [Active ingredient No. 15, 2-fluorobenzophenone] | – | anti-inflammatory effect, inhibition rate (ED50), in words (hind paws of male rats): especially high inhibition rate (ED50)
CCCCCCCCc1ccc(C(=O)c2ccccc2Br)cc1 [compound 145] | 60.2 | –
CCCc1ccc(C(=O)c2ccccc2I)cc1 [compound 154] | 29 | –
CCCc1ccc(C(=O)c2cccc(Cl)c2)cc1 [compound 139] | 11.7 | –
CCCCc1ccc(C(=O)c2ccc(F)cc2)cc1 [compound 127] | 58.8 | –
Cc1ccc(C(=O)c2ccccc2Cl)c(C)c1 [compound 135] | 37.2 | –
Cc1cc(C)c(C(=O)c2ccc(I)cc2)c(C)c1 [compound 166] | 21.5 | –
Cc1ccc(C(=O)c2cccc(I)c2)c(C)c1 [compound 162] | 13 | –
Cc1ccc(C(=O)c2ccccc2I)c(C)c1 [compound 158] | 32.7 | –
Cc1ccc(C(=O)c2cccc(Br)c2)c(C)c1 [compound 149] | 42.2 | –
Cc1cc(C)c(C(=O)c2ccccc2)c(C)c1 [compound 30] | – | Blood platelet agg. inh.: percentage inhibition of platelet aggregation (platelet; [2]): 8.7%
CCCCCCCCc1ccc(C(=O)c2ccc(F)cc2)cc1 [compound 129] | 38.6 | –
CCCCc1ccc(C(=O)c2cccc(I)c2)cc1 [compound 160] | 10.8 | –
CCCCCCCCc1ccc(C(=O)c2ccc(I)cc2)cc1 [compound 164] | 29 | –
Cc1cc(C)c(C(=O)c2ccc(F)cc2)c(C)c1 [compound 131] | 33.6 | –
